One assay deals with A549 cells. The settings on record: data provided by National Cancer Institute, Developmental Therapeutic Program; cited from earlier work.
Assay [1] relates to tumor cell lines including SKOV3 and Colo205. Put plainly: Inhibition of cellular proliferation in tumor cell lines (MTS, 48 hours). Format: cell-based, human. The conditions noted are these: various tumor cell lines including SKOV3 and Colo205; 'typically'. The method, then:
Cells were plated in 96-well plates at densities from 1000-2500 cells/well of a 96-well plate and allowed to adhere/grow for 24 hours. They were then treated with various concentrations of drug for 48 hours. The time at which compounds are added is considered T0. A tetrazolium-based assay using the reagent 3-(4,5-dimethylthiazol-2-yl)-5-(3-carboxymethoxyphenyl)-2-(4-sulfophenyl)-2H-tetrazolium (MTS) (U.S. Pat. No. 5,185,450) (see Promega product catalog #G3580, CellTiter 96® AQueous One Solution Cell Proliferation Assay) was used to determine the number of viable cells at T0 and the number of cells remaining after 48 hours compound exposure. The number of cells remaining after 48 hours was compared to the number of viable cells at the time of drug addition, allowing for calculation of growth inhibition.
The growth over 48 hours of cells in control wells that had been treated with vehicle only (0.25% DMSO) is considered 100% growth and the growth of cells in wells with compounds is compared to this.
An IC50 was calculated by plotting the concentration of compound in μM vs the percentage of cell growth of cell growth in treated wells. The IC50 calculated for the compounds is the estimated concentration at which growth is inhibited by 50% compared to control, i.e., the concentration at which:
All concentrations of compounds are tested in duplicate and controls are averaged over 12 wells. A very similar 96-well plate layout and IC50 calculation scheme is used by the National Cancer Institute (see Monks, et al., J. Natl. Cancer Inst. 83:757-766 (1991)).

The target of the next assay is T1, KSP motor domain (Homo sapiens, UniProt P52732).
T1 construct: 100 nM KSP motor domain, 50 μg/ml microtubules
T1 sequence (P52732 18-359 limits assumed): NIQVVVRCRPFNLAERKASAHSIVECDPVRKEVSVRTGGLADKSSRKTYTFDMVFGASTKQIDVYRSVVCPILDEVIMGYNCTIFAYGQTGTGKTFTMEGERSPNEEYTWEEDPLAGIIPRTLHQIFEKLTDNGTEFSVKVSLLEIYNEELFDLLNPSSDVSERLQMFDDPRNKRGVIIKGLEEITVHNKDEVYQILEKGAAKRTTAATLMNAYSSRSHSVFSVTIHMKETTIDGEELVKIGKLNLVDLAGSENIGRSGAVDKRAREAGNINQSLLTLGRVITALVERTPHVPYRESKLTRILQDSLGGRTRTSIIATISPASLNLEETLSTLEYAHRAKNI
Put plainly: KSP ATPase assay (IC50 for KSP activity). Format: biochemical. On the procedure:
One measure of inhibition is IC50, defined as the concentration of the composition at which the activity of KSP is decreased by fifty percent relative to a control. Preferred compositions have […] of less than about 1 mM, with preferred embodiments having IC50's of less than about 100 μM, with more preferred embodiments having IC50's of less than about 10 μM, with particularly preferred embodiments having IC50's of less than about 1 μM, and especially preferred embodiments having IC50's of less than about 100 nM, and with the most preferred embodiments having IC50's of less than about 10 nM. Measurement of IC50 is done using an ATPase assay.
Measurement of a composition's IC50 for KSP activity uses an ATPase assay. The following solutions are used: Solution 1 consists of 3 mM phosphoenolpyruvate potassium salt (Sigma P-7127), 2 mM ATP (Sigma A-3377), 1 mM DTT (Sigma D-9779), 5 μM paclitaxel (Sigma T-7402), 10 ppm antifoam 289 (Sigma A-8436), 25 mM Pipes/KOH pH 6.8 (Sigma P6757), 2 mM MgC12 (VWR JT400301), and 1 mM EGTA (Sigma E3889). Solution 2 consists of 1 mM NADH (Sigma N8129), 0.2 mg/ml BSA (Sigma A7906), pyruvate kinase 7 U/ml, L-lactate dehydrogenase 10 U/ml (Sigma P0294), 100 nM KSP motor domain, 50 μg/ml microtubules, 1 mM DTT (Sigma D9779), 5 μM paclitaxel (Sigma T-7402), 10 ppm antifoam 289 (Sigma A-8436), 25 mM Pipes/KOH pH 6.8 (Sigma P6757), 2 mM MgC12 (VWR JT4003-01), and 1 mM EGTA (Sigma E3889). Serial dilutions (8-12 two-fold dilutions) of the composition are made in a 96-well microtiter plate (Corning Costar 3695) using Solution 1. Following serial dilution each well has 50 μl of Solution 1. The reaction is started by adding 50 μl of solution 2 to each well. This may be done with a multichannel pipettor either manually or with automated liquid handling devices. The microtiter plate is then transferred to a microplate absorbance reader and multiple absorbance readings at 340 nm are taken for each well in a kinetic mode. The observed rate of change, which is proportional to the ATPase rate, is then plotted as a function of the compound concentration. For a standard IC50 determination the data acquired is fit by the following four parameter equation using a nonlinear fitting program (e.g., Grafit 4): […]
where y is the observed rate and x the compound concentration. […] By this we mean that although most of the compounds that inhibited KSP activity biochemically did inhibit cell proliferation, for some, at the highest concentration tested (generally about 20 μM), cell growth was inhibited less than 50%. […] Anti-proliferative compounds that have been successfully applied in the clinic to treatment of cancer (cancer chemotherapeutics) have IC50's that vary greatly. […]

The values below come from patent US20090170882A1, “Methods and compositions” (priority 2004, published 2009).

Broadly, the IC50 is the midpoint of a concentration-inhibition curve. As to `O=c1[nH]cc(F)c(=O)[nH]1` [5-fluorouracil], the half-inhibitory concentration (IC50) in the assay with A549 cells was 1000 nM.

Regarding `Nc1cccc2c1[nH]c1ccc(C(F)(F)F)cc12` [6-(trifluoromethyl)-9H-carbazol-1-ylamine], the “IC50 for inhibition of proliferation of tumor cell lines” value in assay [1] is given as “not active”. Besides, the “IC50 for inhibition of KSP” value at KSP motor domain is listed as “not active”.

With `CS(=O)(=O)Nc1ccc2[nH]c3ccc(C(F)(F)F)cc3c2c1` [6-(trifluoromethyl-9H-carbazol-3-yl)-methanesulfonamide], the “IC50 for inhibition of proliferation of tumor cell lines” value in assay [1] is “not active”. On KSP motor domain, the “IC50 for inhibition of KSP” value is listed as “not active”.

Consider `NC(=O)Nc1ccc2[nH]c3ccc(C(F)(F)F)cc3c2c1` [(6-Trifluoromethyl-9H-carbazol-3-yl)-urea], for which, in assay [1], the “IC50 for inhibition of proliferation of tumor cell lines” value is on record as “not active”. Moreover, at KSP motor domain, the “IC50 for inhibition of KSP” value is on record as “not active”.

As to `CS(=O)(=O)Nc1cccc2c1[nH]c1ccc(C(F)(F)F)cc12` [N-[6-(trifluoromethyl)-9H-carbazol-1-yl]methanesulfonamide], the “IC50 for inhibition of proliferation of tumor cell lines” value in assay [1] is given as “not active”. Further, the “IC50 for inhibition of KSP” value against KSP motor domain was “not active”.

Turning to `COc1cccc2c1C(=O)c1c(O)c3c(c(O)c1C2=O)C[C@@](O)(C(=O)CO)C[C@@H]3O[C@H]1C[C@H](N)[C@H](O)[C@H](C)O1` [doxorubicin], in the assay on A549 cells, the concentration for half-maximal inhibition (IC50) was 63 nM.

For `NC(=O)NO` [hydroxyurea], in the assay on A549 cells, the IC50 was 500000 nM.

As to `CC(=O)O[C@H]1C(=O)[C@@]2(C)[C@H]([C@H](OC(=O)c3ccccc3)[C@]3(O)C[C@H](OC(=O)[C@H](O)[C@@H](NC(=O)c4ccccc4)c4ccccc4)C(C)=C1C3(C)C)[C@]1(OC(C)=O)CO[C@@H]1C[C@@H]2O` [paclitaxel], in the assay with A549 cells, the half-maximal inhibitory concentration (IC50) is 4 nM.
